How the values were obtained:
[1] = target: T1, angiotensin-I-converting enzyme (ACE) (Oryctolagus cuniculus, UniProt P12822); test: ACE (Angiotensin I-Converting Enzyme) inhibition activity, Hip-His-Leu substrate, absorbance at 228 nm; assay type: biochemical, rabbit
T1 construct: tissue Sigma; host or cells: rabbit lung (acetone powder, borate buffer extract supernatant)
T1 sequence (P12822 34-1310): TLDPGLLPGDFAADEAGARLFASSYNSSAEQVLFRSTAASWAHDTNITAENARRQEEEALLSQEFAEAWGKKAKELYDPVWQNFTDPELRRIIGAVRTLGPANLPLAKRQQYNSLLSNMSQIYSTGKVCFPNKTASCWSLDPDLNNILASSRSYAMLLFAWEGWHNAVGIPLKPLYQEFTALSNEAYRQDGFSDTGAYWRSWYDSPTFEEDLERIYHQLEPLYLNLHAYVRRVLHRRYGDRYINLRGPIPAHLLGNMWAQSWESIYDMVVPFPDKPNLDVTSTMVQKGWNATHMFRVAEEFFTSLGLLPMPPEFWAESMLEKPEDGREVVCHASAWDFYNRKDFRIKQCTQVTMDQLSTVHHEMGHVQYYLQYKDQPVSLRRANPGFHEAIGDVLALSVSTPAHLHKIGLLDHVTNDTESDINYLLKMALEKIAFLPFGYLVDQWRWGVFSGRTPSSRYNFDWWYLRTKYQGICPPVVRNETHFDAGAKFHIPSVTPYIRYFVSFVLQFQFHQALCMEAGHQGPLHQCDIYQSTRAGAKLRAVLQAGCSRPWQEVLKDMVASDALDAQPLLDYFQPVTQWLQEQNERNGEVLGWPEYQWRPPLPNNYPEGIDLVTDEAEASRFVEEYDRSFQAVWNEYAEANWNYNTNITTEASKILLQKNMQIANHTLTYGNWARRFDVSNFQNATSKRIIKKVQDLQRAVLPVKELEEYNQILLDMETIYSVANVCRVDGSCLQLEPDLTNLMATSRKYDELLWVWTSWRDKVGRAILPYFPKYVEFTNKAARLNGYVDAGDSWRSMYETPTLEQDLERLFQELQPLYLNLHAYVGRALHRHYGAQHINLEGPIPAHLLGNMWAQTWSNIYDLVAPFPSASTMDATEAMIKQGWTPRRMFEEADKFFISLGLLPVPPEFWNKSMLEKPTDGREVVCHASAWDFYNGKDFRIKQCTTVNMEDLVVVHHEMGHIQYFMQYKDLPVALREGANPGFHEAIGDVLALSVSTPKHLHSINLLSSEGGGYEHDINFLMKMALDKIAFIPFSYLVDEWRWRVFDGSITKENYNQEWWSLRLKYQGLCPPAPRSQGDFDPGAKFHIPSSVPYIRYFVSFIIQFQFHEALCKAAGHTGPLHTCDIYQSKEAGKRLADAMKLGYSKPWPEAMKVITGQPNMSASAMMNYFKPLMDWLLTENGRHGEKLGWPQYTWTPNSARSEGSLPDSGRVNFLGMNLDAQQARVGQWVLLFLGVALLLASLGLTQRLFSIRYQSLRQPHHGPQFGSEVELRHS
Protocol: As shown in the results of Table 8, the hydrolyzed Salicornia salty sauces had very high functional polyphenol and flavonoid contents compared to the non-hydrolyzed salty sauce. Thus, as an indicator for antihypertensive activity, angiotensin-I-converting enzyme (ACE) inhibition activity was evaluated. As the test sample, each salty sauce, adjusted to a salt content of 14%, was added at a concentration of 1 to 5 μL/mL to the reaction solution, and then measured.
Angiotensin-II, produced by ACE, promotes an increase in blood pressure and secretion of antidiuretic hormone aldosterone, and suppresses the emission of water and sodium to thus increase blood circulation, thus causing hypertension. […] Specifically, 1 g of a rabbit lung acetone powder (Sigma Col) in 50 μL of the sample was mixed with 25 μL (2.5 unit) of an ACE supernatant dissolved in a 0.1 M sodium borate buffer containing 10 mL of 0.3 M NaCl, 50 μL of a 0.1 M sodium borate buffer (pH 8.3) containing 0.3 M NaCl, and 25 μL of a sample solution at various concentrations (0.25, 0.5 and 1.0 mg/mL), and then preincubated at 37° C. for 10 min. Further, 50 μL of a Hip-His-Leu substrate solution was added, and the resulting mixture was allowed to react at 37° C. for 30 min, after which the reaction was stopped by the addition of 100 μL of 1 N HCl. 1 mL of ethyl acetate was added, and the resulting reaction mixture was agitated in a vortex for 1 min and centrifuged at 3,000 g for 15 min, after which 0.8 mL of the separated ethyl acetate supernatant (extract) was recovered. The supernatant was warmed in a hood and thus completely volatilized, and was then dissolved in 1 mL of a sodium borate buffer under the same conditions, after which absorbance at 228 nm was measured and ACE inhibition activity was calculated.
During purification, the organic solvent fractions (at concentrations of 10, 25, 50 μg/mL) were measured for ACE inhibition activity in the same manner as in Example 3-2.

[2] = Solubility (physical and chemical properties of Compound A); assay type: physicochemical

SMILES	IC50 [1] [µM]	inhibition at 10 µg/mL ([1]; at a concentration of 10 μg/mL) [%]	ACE inhibition activity, rank among compared samples/fractions ([1]; compared with the other sauces or with the other fractions of the same purification step)	Solubility ([2]; in methanol, ethanol, ethyl acetate, and chloroform)	Solubility ([2]; in water)
O=c1cc(-c2ccc(O)c(O)c2)oc2cc(O)cc(O)c12 [Luteolin, reference compound]	93.3	–	–	–	–
COc1cc2c(=O)c(-c3ccccc3O)coc2cc1O [EDS-LH-7b, 7-hydroxy-3-(2′-hydroxyphenyl)-6-methoxy-4H-1-benzopyran-4-one]	15.8	≥ 95	the greatest	Soluble	insoluble

Source: patent US20180319762A1, “5-deoxy-irilin B Having Angiotensin-I-converting enzyme Inhibition Activity derived from Salicornia SPP. and Composition Containing the Same” (PHYTO CORPORATION, priority 2015, published 2018)
